Measurements: patent US20260085073A1, “PYRAZOLYLCARBOXAMIDE COMPOUNDS AND THEIR USE IN THERAPY” (Hotspot Therapeutics, Inc., priority 2022, published 2026)

Molecular target: T1, MALT1 (Homo sapiens, UniProt Q9UDY8)
T1 construct: Avi-tagged FL MALT-1 (Pharmaron, stored at −70° C.); Avi-tag
T1 sequence (Q9UDY8 1-824): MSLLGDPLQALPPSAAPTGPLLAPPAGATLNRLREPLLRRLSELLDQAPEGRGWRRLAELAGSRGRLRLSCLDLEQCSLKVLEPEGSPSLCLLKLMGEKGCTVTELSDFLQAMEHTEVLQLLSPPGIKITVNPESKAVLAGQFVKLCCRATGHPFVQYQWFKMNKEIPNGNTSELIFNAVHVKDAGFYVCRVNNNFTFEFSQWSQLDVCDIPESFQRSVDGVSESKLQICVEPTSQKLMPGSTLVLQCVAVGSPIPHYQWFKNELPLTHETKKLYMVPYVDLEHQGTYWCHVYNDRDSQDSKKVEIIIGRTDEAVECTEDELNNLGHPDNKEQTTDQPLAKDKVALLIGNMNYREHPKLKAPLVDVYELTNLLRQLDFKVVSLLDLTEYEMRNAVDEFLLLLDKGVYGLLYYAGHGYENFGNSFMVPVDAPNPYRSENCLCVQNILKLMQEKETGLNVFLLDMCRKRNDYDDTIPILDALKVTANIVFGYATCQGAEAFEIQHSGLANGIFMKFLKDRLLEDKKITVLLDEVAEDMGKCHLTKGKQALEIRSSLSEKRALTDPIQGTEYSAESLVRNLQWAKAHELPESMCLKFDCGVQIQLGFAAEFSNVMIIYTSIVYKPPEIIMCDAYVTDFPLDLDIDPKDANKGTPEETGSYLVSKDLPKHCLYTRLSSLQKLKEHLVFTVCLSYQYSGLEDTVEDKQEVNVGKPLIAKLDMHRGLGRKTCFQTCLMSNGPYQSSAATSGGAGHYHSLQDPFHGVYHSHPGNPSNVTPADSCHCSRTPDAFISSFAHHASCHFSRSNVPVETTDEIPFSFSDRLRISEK
Assay: MALT1 inhibition assay (MALT-1 Fluorogenic Peptide Cleavage Assay, Ac-LRSR-AMC substrate)
Type: biochemical
Conditions: Avi-tagged FL MALT-1, 30 min pre-incubation, 90 min reaction at room temperature, fluorescence intensity
Method: Example 71—MALT1 Inhibition Assay
Compounds were tested for ability to bind to MALT1.
Inhibition of MALT1 activity by the presence of small molecules was evaluated using MALT-1 Fluorogenic Peptide Cleavage Assay. The assay utilizes a quenched AMC-labelled peptide that contains the MALT-1 recognition sequence and cleavage site (LRSR). MALT-1 mediated cleavage of the peptide relieves the quenching and leads to an increase in fluorescence at excitation (342 nm) and emission (441 nm).
The following reagents were obtained commercially and used to prepare standard reagent formulations as further described below: N-2-hydroxyethylpiperazine-N-2-ethane sulfonic acid (HEPES) (1 M, pH 7.5, stored at 4° C.), sodium citrate (stored at RT), tris(2-carboxyethyl) phosphine hydrochloride (T-CEP) (500 mM, stored at −20° C.), ethylenediaminetetraacetic acid (EDTA) (500 mM, stored at RT), dimethylsulfoxide (DMSO, stored at RT), 3-[(3-cholamidopropyl)dimethylammonio]-1-propane sulphate (CHAPS) (stored at RT), dimethylsulfoxide (DMSO), DMSO (Fisher Scientific, stored at RT), Avi-tagged FL MALT-1 (Pharmaron, stored at −70° C.), Ac-LRSR-AMC Peptide (SM Biochemicals, stored at −20° C.), and ultrapure water (MILLI-QR).
The standard reagent formulations used in this assay were prepared and stored as follows. A 1.1 M solution of sodium citrate (161.3 g, 500 mL) was prepared and stored at room temperature. A 10% (w/v) CHAPS solution (2.0 g, 20 mL) was prepared and stored at 4° C. A 500 mM HEPES solution having pH of 6.89 was prepared from 200 mL of a 1 M HEPES solution having a pH of 7.5 using concentrated hydrochloric acid and brought to a final volume of 400 mL with MILLI-QR H2O. The substrate, 10 mM Ac-LRSR-AMC Peptide, was prepared (10 mg, 1.370 mL DMSO) and stored at −20° C.
Compounds were plated to provide a 2% DMSO final concentration using a ProxiPlate-384 Plus F Black 384-shallow well microplate. The assay-ready plates were equilibrated to room temperature. A reaction buffer (30 mL total volume) was prepared by combining HEPES (pH 6.89, 25 mM, 1.5 mL), sodium citrate (660 mM, 18.0 mL), T-CEP (1 mM, 0.06 mL), EDTA ([…], 0.06 mL), CHAPS (0.05%, 0.15 mL), DMSO (2%, 0.6 mL), and MILLI-QR H2O (10.23 mL; 9.63 mL when backfilled to 2% DMSO) followed by thorough mixing. DMSO was added only when compound plates had not been DMSO-backfilled to 2%.
MALT-1 was thawed and kept on ice. Peptide substrate was thawed on the bench under ambient conditions. A MALT-1 enzyme working stock was prepared from Avi-tagged FL MALT-1 (40 nM in a prepared reagent volume of 16.5 μL) and the reaction buffer (13.0 mL). MALT1 working stock (5 μL) was added to each well of the microplate. MALT-1 was pre-incubated with compounds for 30 minutes at room temperature.
Two substrate working stocks (Km and 10×Km) were prepared. The 1×Km substrate was prepared from Ac-LRSR-AMC Peptide (50 μM in a prepared reagent volume of 35.0 μL) and the reaction buffer (6.965 mL). The 10×Km substrate was prepared from Ac-LRSR-AMC Peptide (280 μM in a prepared reagent volume of 196.0 μL) and the reaction buffer (6.804 mL). The reaction was initiated by the addition of substrate working stock (5 μL, 50 μM) to Km plates and the addition of substrate working stock (5 μL 280 μM) to 10×Km plates. The plates were covered and incubated on the bench at room temperature for 90 minutes.
Fluorescence intensity was determined using a CLARIOstar microplate reader (BMG LABTECH) using the optimised AMC mode. Before taking readings, a 70% gain was applied on the neutral control well. Compound data were normalised to % Inhibition and used to plot sigmoidal concentration response curves to yield various parameters including IC50.

SMILES | IC50
Cn1nc(-c2csc3cnccc23)c(C(F)(F)F)c1C(=O)Nc1ccnc(C(F)(F)F)c1 [Compound I-1, 1-methyl-3-(thieno[2,3-c]pyridin-3-yl)-4-(trifluoromethyl)-N-(2-(trifluoromethyl)pyridin-4-yl)-1H-pyrazole-5-carboxamide] | < 500 nM
Cn1nc(-c2cccc3c2OCC(=O)N3)c(C(F)(F)F)c1C(=O)Nc1ccnc(C(F)(F)F)c1 [Compound I-2] | 2500 to 10000 nM
Cn1nc(-c2cccc3c2CCNC3=O)c(C(F)(F)F)c1C(=O)Nc1ccnc(C(F)(F)F)c1 [Compound I-3] | 2500 to 10000 nM
Cn1nc(-c2cccc3ncn(C)c23)c(C(F)(F)F)c1C(=O)Nc1ccnc(C(F)(F)F)c1 [Compound I-4] | < 500 nM
Cn1cc2cccc(-c3nn(C)c(C(=O)Nc4ccnc(C(F)(F)F)c4)c3C(F)(F)F)c2n1 [Compound I-5] | 2500 to 10000 nM
Cn1nc(-c2c[nH]c3ncccc23)c(C(F)(F)F)c1C(=O)Nc1ccnc(C(F)(F)F)c1 [Compound I-6] | < 500 nM
Cn1nc(-c2cccc3cccnc23)c(C(F)(F)F)c1C(=O)Nc1ccnc(C(F)(F)F)c1 [Compound I-7] | 500 to 2500 nM
Cn1nc(-c2ccc(=O)n(C)c2)c(C(F)(F)F)c1C(=O)Nc1ccnc(C(F)(F)F)c1 [Compound I-8] | 2500 to 10000 nM
Cn1nc(-c2cccc3ocnc23)c(C(F)(F)F)c1C(=O)Nc1ccnc(C(F)(F)F)c1 [Compound I-9] | < 500 nM
Cn1nc(-c2cccc3nc[nH]c23)c(C(F)(F)F)c1C(=O)Nc1ccnc(C(F)(F)F)c1 [Compound I-10] | 500 to 2500 nM
Cn1nc(-c2cccc3ncoc23)c(C(F)(F)F)c1C(=O)Nc1ccnc(C(F)(F)F)c1 [Compound I-11] | < 500 nM
Cn1nc(-c2cccc3c2CC(=O)N3)c(C(F)(F)F)c1C(=O)Nc1ccnc(C(F)(F)F)c1 [Compound I-12] | 500 to 2500 nM
Cn1nc(-c2cccc3nccn23)c(C(F)(F)F)c1C(=O)Nc1ccnc(C(F)(F)F)c1 [Compound I-13] | 500 to 2500 nM
Cn1nc(-c2ccnc3ccoc23)c(C(F)(F)F)c1C(=O)Nc1ccnc(C(F)(F)F)c1 [Compound I-14] | < 500 nM
Cn1nc(-c2cnc3ncccn23)c(C(F)(F)F)c1C(=O)Nc1ccnc(C(F)(F)F)c1 [Compound I-15] | > 10000 nM
Cn1nc(-c2cnc3cccnn23)c(C(F)(F)F)c1C(=O)Nc1ccnc(C(F)(F)F)c1 [Compound I-16] | > 10000 nM
Cc1ccc(-c2nn(C)c(C(=O)Nc3ccnc(C(F)(F)F)c3)c2C(F)(F)F)c(Cl)c1 [Compound I-18] | 500 to 2500 nM
COc1ccncc1-c1nn(C)c(C(=O)Nc2ccnc(C(F)(F)F)c2)c1C(F)(F)F [Compound I-19] | 500 to 2500 nM

Next, values leading:

IC50 | SMILES
> 10000 nM | Cn1nc([C@@H]2C[C@H]2c2ccccc2)c(C(F)(F)F)c1C(=O)Nc1ccnc(C(F)(F)F)c1 (racemic) [Compound I-40]
500 to 2500 nM | COc1cccc(OC)c1-c1nn(C)c(C(=O)Nc2ccnc(C(F)(F)F)c2)c1C(F)(F)F [Compound I-20]
500 to 2500 nM | Cn1nc(-c2cccc3nccnc23)c(C(F)(F)F)c1C(=O)Nc1ccnc(C(F)(F)F)c1 [Compound I-21]
500 to 2500 nM | Cn1nc(-c2ccc(C#N)c3ncccc23)c(C(F)(F)F)c1C(=O)Nc1ccnc(C(F)(F)F)c1 [Compound I-22]
500 to 2500 nM | Cn1nc(-c2cccc3c2NC(=O)C3)c(C(F)(F)F)c1C(=O)Nc1ccnc(C(F)(F)F)c1 [Compound I-23]
500 to 2500 nM | Cn1nc(-c2cccc3c(C#N)nccc23)c(C(F)(F)F)c1C(=O)Nc1ccnc(C(F)(F)F)c1 [Compound I-24]
2500 to 10000 nM | Cn1nc(-c2cccc3c2OCCCO3)c(C(F)(F)F)c1C(=O)Nc1ccnc(C(F)(F)F)c1 [Compound I-25]
> 10000 nM | Cn1nc(-c2cnn3c2OCCC3)c(C(F)(F)F)c1C(=O)Nc1ccnc(C(F)(F)F)c1 [Compound I-26]
500 to 2500 nM | Cn1nc(-c2cccc3cnccc23)c(C(F)(F)F)c1C(=O)Nc1ccnc(C(F)(F)F)c1 [Compound I-27]
2500 to 10000 nM | Cn1nc(-c2ccccc2OC2COC2)c(C(F)(F)F)c1C(=O)Nc1ccnc(C(F)(F)F)c1 [Compound I-28]
< 500 nM | Cn1nc(-c2cccc3ccoc23)c(C(F)(F)F)c1C(=O)Nc1ccnc(C(F)(F)F)c1 [Compound I-29]
< 500 nM | Cn1nc(-c2cccc3ccoc23)c(C(F)(F)F)c1C(=O)Nc1cnc(-n2nccn2)c(C#N)c1 [Compound I-30]
< 500 nM | Cn1nc(-c2cccc3cnccc23)c(C(F)(F)F)c1C(=O)Nc1cnc(-n2nccn2)c(C#N)c1 [Compound I-31]
> 10000 nM | Cn1nc(/C=C/c2ccccc2)c(C(F)(F)F)c1C(=O)Nc1ccnc(C(F)(F)F)c1 [Compound I-32]
< 500 nM | Cn1nc(-c2cccc3c2OCO3)c(C(F)(F)F)c1C(=O)Nc1ccnc(C(F)(F)F)c1 [Compound I-33]
500 to 2500 nM | Cn1nc(-c2ccccc2OC2COC2)c(C(F)(F)F)c1C(=O)Nc1cnc(-n2nccn2)c(C#N)c1 [Compound I-34]
< 500 nM | Cn1nc(-c2ccc(C#N)cc2Cl)c(C(F)(F)F)c1C(=O)Nc1cnc(-n2nccn2)c(C#N)c1 [Compound I-35]
< 500 nM | Cn1nc(-c2ccc(C#N)cc2Cl)c(C(F)(F)F)c1C(=O)Nc1cnc(-n2nccn2)c(Cl)c1 [Compound I-36]
> 10000 nM | Cn1nc(-c2ccc3cnccc3c2)c(C(F)(F)F)c1C(=O)Nc1ccnc(C(F)(F)F)c1 [Compound I-37]
500 to 2500 nM | Cn1nc(-c2cccc3ncccc23)c(C(F)(F)F)c1C(=O)Nc1cnc(-n2nccn2)c(C#N)c1 [Compound I-38]
500 to 2500 nM | Cn1nc(-c2cccc3ncccc23)c(C(F)(F)F)c1C(=O)Nc1ccnc(C(F)(F)F)c1 [Compound I-39]
< 500 nM | Cn1nc(-c2ccc(C#N)cc2Cl)c(C(F)(F)F)c1C(=O)Nc1ccnc(C(F)(F)F)c1 [Compound I-41]
< 500 nM | Cn1nc(-c2cncc3sccc23)c(C(F)(F)F)c1C(=O)Nc1ccnc(C(F)(F)F)c1 [Compound I-42, 1-methyl-3-(thieno[2,3-c]pyridin-4-yl)-4-(trifluoromethyl)-N-(2-(trifluoromethyl)pyridin-4-yl)-1H-pyrazole-5-carboxamide]
